Patent US20230271950A1, “ANTIBACTERIAL PICOLINAMIDE COMPOUNDS” (University of Notre Dame Du Lac, priority 2020, published 2023)
Converted amounts (≈) assume the structure as drawn. Read-outs that look alike come from different tables or passages of the source. Values belong to the molecule of their own block, whether it stands above or below them.

Assays:
[1] = Pharmacokinetics study in mice (plasma and feces levels); assay type: in vivo; settings: for concentration at 8 h: female, CD-1, mouse
Procedure: Pharmacokinetics (PK) study. Mice (n=2 per time point) were given a single 100 μL solution of 5 mg/mL of compound 1 (equivalent to 20 mg/kg). Terminal blood was collected in heparinized syringes by cardiac puncture at 30 min, 1 h, 2 h, 4 h, and 8 h. The two mice at the 8-h time point were place in metabolism cages for collection of feces. Compound 1 was dissolved in 5% DMSO/95% water with 96 mg/mL of sodium bicarbonate. Blood was centrifuged at 1,000 g for 20 min at 4° C. and plasma was separated and stored at −80° C. until analysis. A 45-μL aliquot of plasma was mixed with 5 μL of H2O:ACN (1:1) and was quenched with 100 μL of acetonitrile containing 20 μM of internal standard (compound 10). The sample was centrifuged at 21,000 g for 15 min at 4° C. to precipitate the proteins, and the resulting supernatant was analyzed by UPLC-TQD detector using multiple-reaction monitoring (MRM). Calibration curves for compound 1 were prepared from 0 to 102.4 μM using a control mouse plasma (50 μL). Peak area ratios relative to internal standard and linear regression was used from which the concentrations in plasma samples from the PK study were determined.
An average of 250 mg of feces were collected at 8 h from two mice, and subsequently homogenized with 6 times the feces volume (1,500 μL of H2O:ACN 1:1) using a Bullet Blender (Next Advance, Inc., Troy, N.Y.). The homogenate was centrifuged at 21,000 g for 5 min. The fecal supernatant (72 μL) was mixed with 8 μL of a solution of H2O:ACN (1:1) and 40 μL of 50 μM of the internal standard in ACN with 0.5% formic acid. A calibration curve was prepared from 0 μM to 102.4 μM in control mouse feces. Plasma and feces were analyzed on a Waters TQD tandem quadrupole detector (Waters Corporation, Milford, Mass.) using a YMC-Triart C18 100 mm×2.0 mm column (3μ, YMC Co. Ltd, Kyoto, Japan). The chromatographic conditions consisted of elution with 30% H2O/70% ACN containing 0.10% formic acid for 5 min at a flow rate 0.5 mL/min. Mass Spectrometry acquisition was performed in the positive electrospray ionization mode with MRM. The capillary, cone, extractor and RF lens voltages were set at 2.8 kV, 40 V, 1 V and 0.1 V, respectively. The desolvation and cone gas (nitrogen) flow rates were 650 L/h and 50 L/h, respectively. The source temperature was set at 150° C. The desolvation temperature was 350° C. The MRM transitions used were 459.4→254.0 for compound 1, and 294.8→133.5 for the internal standard.
Animals. Female C57BL/6 mice weighing 18-20 g and 6-8 weeks of age were used for the efficacy study (Jackson, Bar Harbor, Me.). Female CD-1 mice (24-31 g and 7-8 weeks of age) were used for the PK study. They were housed in groups of five mice in sterile polycarbonate shoeboxes with bedding consisting of ¼-inch corncob (The Andersons Ind., Maumee, Ohio) and Alpha-Dri (Shepherd Specialty Papers, Inc., Richland, Mich.). Mice were maintained on a 12-h light/dark cycle at 72° F. and were given Teklad 2918 irradiated extruded rodent diet and water ad libitum. All procedures were performed in accordance with and approved by the University of Notre Dame Institutional Animal Care and Use Committee.
Pharmacokinetics (PK) Studies. Compounds 4, 87, 107, and 108 were dissolved in 10% DMSO, 25% propylene glycol, 15% Tween 80 and 50% water at concentrations of 5 mg/mL or 10 mg/mL. Compound 116 was dissolved in 5% DMSO, 95% water with 96 mg/mL of sodium bicarbonate. Mice (n=2 per time point) were given a single 100 μL oral gavage of the test compound (equivalent to either 10 mg/kg and/or 20 mg/kg), and terminal blood was collected in heparinized syringes by cardiac puncture at 30 min, 1 h, 2 h, 4 h, and 8 h. An average of 250 mg of feces were collected after 8 h from two mice housed in metabolism cages in each group for further analysis. Blood was centrifuged at 1000 g for 2 min at 4° C. to obtain plasma. Plasma and fecal samples were stored at −80° C. until analysis. […]

HeLa cells = assay: XTT cytotoxicity assay with HeLa cells; assay type: cell-based; settings: Homo sapiens
Procedure: XTT assay. Cytotoxicity assays were performed in triplicate against HeLa cells (ATCC CCL-2). The IC50 values were calculated by nonlinear regression with GraphPad Prism 5 (San Diego, Calif.).
XTT assay. XTT assays were performed with HeLa cells (ATCC CCL-2) in triplicate, as previously described (Lancet 2008, 371, 1486). IC50 values were determined by nonlinear regression using GraphPad Prism 5 (San Diego, Calif.).

[2] = test system: Fecal microbiota preparation; assay: MIC against fecal microbiota preparation; assay type: cell-based; settings: Fecal microbiota preparation from OpenBiome tested at 1000-fold dilution
Procedure: Minimum inhibitory concentrations (MIC). MICs for C. difficile strains and the common gut bacteria were determined using broth microdilution techniques as reported earlier using brucella broth supplemented with hemin and vitamin K or supplemented BHIS broth. Lactobacillus MRS broth was used for lactobacillus strains. Sodium lactate was supplemented in the media for Veillonella sp. […] All incubations, unless specified otherwise, were carried out at 24 h or 48 h at 37° C. in an anaerobic chamber (Whitley DG250 workstation, Microbiology International, Frederick, Md.). Corynebacterium and Lactobacillus species were incubated aerobically.

CDI = settings: patients treated with the antibiotic; cited from earlier work
C. difficile ATCC43255 = assay: Scanning-electron microscopy of C. difficile vegetative cells; assay type: cell-based, Clostridioides difficile; settings: compound 1 at 4× to 32×MIC; VAN at 4×MIC
Procedure: FIG. 2. Mechanism of action of compound 1. (A) Macromolecular biosynthesis assays: Compound 1 was incubated with C. difficile ATCC43255 at 0.5×MIC. […] The incubation time was 60 min for DNA, 120 min for peptidoglycan synthesis and RNA, and 180 min for protein synthesis. (B-G) Imaging of C. difficile […] vegetative cells (logarithmic growth) by scanning electron microscopy.
Scanning-electron microscopy. […] Following incubation, the cells were washed with PBS (3×) and applied onto poly-1-lysine (Santa Cruz Biotechnology, Dallas, Tex.) coated microglass coverslips (Electron Microscopy Sciences, Hatfield, Pa.) and incubated for 15 min. The cells were fixed for 1 h with 2% glutaraldehyde, followed by a wash (3×) with sodium cacodylate buffer at pH 7.4. The samples were fixed with 1% osmium tetroxide for 1 h and rinsed (3×) in the buffer. The samples were then put through a graded ethanol series for dehydration, followed by critical point drying. The samples were then mounted on SEM stubs and sputter-coated with iridium. Microscopy and imaging were performed on a Magellan 400 XHR instrument (FEI, Hillsboro, Oreg.).

[3] = single oral gavage, dose 20 mg · kg^−1, feces collected after 8 h, read-out: Drug concentration in fecal samples (mg kg^−1 feces)
[4] = 20 mg/kg single oral administration

Conc. feces/MIC ([1]; dose 20 mg · kg^−1): 11
concentration at 8 h [1, 3]: 2800 ng/g
SMILES: O=C(Nc1ncco1)c1ccnc(-c2ccc(Cl)c(Cl)c2)c1 [Compound 4, 2-(3,4-Dichlorophenyl)-N-(oxazol-2-yl)isonicotinamide]
IC50 (HeLa cells; Table 6): 79.9 ± 1 µg/mL (≈ 239 µM)

MIC [2]: > 128 µg/mL
SMILES: Cc1ncc([N+](=O)[O-])n1CCO [MTZ, metronidazole, reference compound]

SMILES: O=C(Nc1ncco1)c1cc(Oc2cccc(OC(F)(F)F)c2)ccn1 [Compound 108, N-(Oxazol-2-yl)-4-(3-(trifluoromethoxy)phenoxy)picolinamide]
Conc. feces/MIC ([1]; dose 20 mg · kg^−1): 49
concentration at 8 h [1, 3]: 49000 ng/g
IC50 (HeLa cells; Table 6): 93.3 ± 1.7 µg/mL (≈ 255 µM)

SMILES: CCc1c(Cl)c(O)c(Cl)c(O)c1C(=O)O[C@H]1[C@H](O)[C@H](OC)[C@H](OC/C2=C\C=C\C[C@H](O)/C(C)=C/[C@H](CC)[C@@H](O[C@@H]3OC(C)(C)[C@@H](OC(=O)C(C)C)[C@H](O)[C@@H]3O)/C(C)=C/C(C)=C/C[C@@H]([C@@H](C)O)OC2=O)O[C@@H]1C [FDX, fidaxomicin, reference compound]
Recurrence of CDI (CDI): 15%
MIC [2]: > 128 µg/mL

SMILES: CN[C@H](CC(C)C)C(=O)N[C@H]1C(=O)N[C@@H](CC(N)=O)C(=O)N[C@H]2C(=O)N[C@H]3C(=O)N[C@H](C(=O)N[C@H](C(=O)O)c4cc(O)cc(O)c4-c4cc3ccc4O)[C@H](O)c3ccc(c(Cl)c3)Oc3cc2cc(c3O[C@@H]2O[C@H](CO)[C@@H](O)[C@H](O)[C@H]2O[C@H]2C[C@](C)(N)[C@H](O)[C@H](C)O2)Oc2ccc(cc2Cl)[C@H]1O [VAN, vancomycin, reference compound]
cell surface by scanning-electron microscopy (C. difficile ATCC43255): altered
Recurrence of CDI (CDI): 25%
MIC [2]: > 128 µg/mL

SMILES: O=C(O)c1ccc2oc(NC(=O)c3cc(Oc4cccc(OC(F)(F)F)c4)ccn3)nc2c1 [Compound 1, Sodium 2-(4-(3-(trifluoromethoxy)phenoxy)picolinamido)benzo[d]oxazole-5-carboxylate]
cell surface by scanning-electron microscopy (C. difficile ATCC43255): bleb formation on the surface was evident
Concentrations in plasma [1, 4]: non-quantifiable
levels in feces higher than the MIC for C. difficile ATCC 43255 [1, 4]: > 100 fold
Conc. feces/MIC ([1]; dose 20 mg · kg^−1): 108
concentration at 8 h ([1]; 20 mg/kg single oral administration, feces collected at 8 h, read-out: levels in feces): 13000 ng/g
Drug concentration in fecal samples (mg kg^−1 feces) ([1]; single oral gavage, dose 20 mg · kg^−1, feces collected after 8 h): 13 mg/kg
IC50 (HeLa cells): 179 ± 4 µg/mL
IC50 (HeLa cells; Table 6): 179 µg/mL
MIC [2]: > 128 µg/mL

Conc. feces/MIC ([1]; dose 10 mg · kg^−1): 6.6
concentration at 8 h ([1]; single oral gavage, dose 10 mg · kg^−1, feces collected after 8 h, read-out: Drug concentration in fecal samples (mg kg^−1 feces)): 790 ng/g
SMILES: O=C(Nc1ncco1)c1cc(-c2ccc(Cl)c(Cl)c2)ccn1 [Compound 87, 4-(3,4-Dichlorophenyl)-N-(oxazol-2-yl)picolinamide]
IC50 (HeLa cells; Table 6): 95.2 ± 1 µg/mL (≈ 285 µM)
